For one data set, the target named is T1, HDAC1 (Homo sapiens, UniProt Q13547).
T1 construct: purchased BPS Bioscience
Kind of data set: HDAC1 recombinant enzymatic assay. It is filed as biochemical. The conditions noted are these: 5 h pre-incubation, 5 nM enzyme; read-out: HDAC recombinant enzymatic IC50 HDAC1. As for the experimental part:
(§1) The following describes an assay protocol for measuring the deacetylation of a peptide substrate by the enzymes HDAC2 or HDAC1.
(§2) All recombinant human HDACs were purchased from BPS Bioscience. The substrate, FAM-TSRHK(AC)KL-CONH, was synthesized at NanoSyn. Final assay reactions contained 100 mM HEPES (pH 7.5), 50 mM KCl, 0.1% BSA, 0.01% Triton X-100, 1% DMSO, 1 uM substrate and 5 nM HDAC enzyme. Enzyme and compounds were pre-incubated at 25° C. for 5 hours and reactions were initiated by addition of substrate. 10 uL reactions were incubated for 17 hours at 25° C. and terminated by the addition of 40 uL of buffer containing 100 mM HEPES (pH 7.5), 0.1% BSA, 0.01% Triton X-100 and 0.05% SDS. Substrate and product peptides present in each sample were separated electrophoretically using the LabChip 3000 capillary electrophoresis instrument. Change in the relative fluorescence intensity of the substrate and product peaks reflects enzyme activity. Reaction progress was determined as the product to sum ratio (PSR):P/(S+P), where P is the peak height of the product peptide and S is the peak height of the substrate peptide. Reactions were performed in duplicate at 12 concentrations, (3× serial dilutions starting at 30 uM). IC50 values were calculated using a 4 Parameter Logistic Model.

In a further data set the target is HDAC2 (Homo sapiens, UniProt Q92769). Kind of data set: HDAC2 recombinant enzymatic assay. In kind it is biochemical. The arrangement: purchased BPS Bioscience. The conditions noted are these: 5 h pre-incubation, 5 nM enzyme; read-out: HDAC recombinant enzymatic IC50 HDAC2. As to the method:
as §1, §2

Data set [1] can be described thus: Brain and plasma exposure following IV and PO administration to mice. Conditions: for Mouse IV-PO (1/10 mpk): F: IV 1 mpk / PO 10 mpk; for clearance / half-life: plasma. It is filed as in vivo. As to the method: Compounds were dosed in mice at either 10 mg/kg or 30 mg/kg PO, and were dosed at 1 mg/kg IV. Three animals for collection at each time point for plasma via bleeding at 0.25, 0.5, 1, 4, 12 and 24 h. Terminal bleeding for plasma and sampling for brain at 0.25, 0.5, 1, 4, 12 and 24 h (also three animals per brain exposure time point group). Total of six time points for plasma and six time points for brain.
Plasma: The animal was restrained manually at the designated time points, approximately 150 μL blood/time point was collected into K2EDTA tube via retro orbital puncture or cardiac puncture under anesthesia with Isoflurane. The blood sample was centrifuged (2000 g, 4° C., 5 min) to generate plasma within 30 min after bleeding.
Brain: At the designated time points, a mid-line incision was made in the animals scalp and the skin was retracted. Using small bone cutters and rongeurs, removed the skull overlying the brain. Removed the brain using a spatula and rinse with cold saline. Placed the brain in screw-top tubes, and then stored the tubes under −70° C. until analysis.

For data set [2], the system named is dendritic spines of CA1 pyramidal neurons, dorsal hippocampus. Kind of data set: Dendritic spine morphology in dorsal hippocampus (CA1) after 14 days of oral treatment. The conditions noted are these: for Thin Spines (% increase over vehicle) / Total Spines (% increase over vehicle): 14 days, WT mice; for dendritic spine density (in words, earlier studies): Compound 2 at 1, 3, 6 and 20 mg/kg/day, Compound 1 at 10 mg/kg/day. In kind it is in vivo, wild type mice (C57BL/6J). As for the experimental part:
Compounds were evaluated to determine whether sub-chronic treatment could produce changes in dendritic spine morphology in the CA1 region of the dorsal hippocampus in wild type (WT) mice. Compounds were administered orally to wild type mice, daily for 14 days. Doses were chosen based on pharmacokinetic data, brain exposure, and potency. Effects of compounds treatments on dendritic spine morphology in the CA1 region of the dorsal hippocampus were then evaluated.
Male C57BL/6J mice (7-8-weeks old, n=7 per group) were dosed orally with Rodin compounds or vehicle (20% HPßCD) daily for 14 days. Doses for compounds were chosen based on exposure data from pharmacokinetic experiments. […] Mice were sacrificed 24 hours after the last dose, and underwent transcardial perfusion for preparation of brain samples.
Mice were anesthetized with chloral hydrate (4% chloral hydrate in saline, 10 ml/kg) before undergoing transcardial perfusion with 4% PFA in 1×PBS (pH7.4, room temperature) at 20 mL/min for 54 seconds. Immediately after the perfusion, mice were decapitated and their brain extracted. Brains were postfixed in scintillation vials containing 4% PFA (5-10 ml) for 4 min. Brains were sectioned using a tissue vibratome (Leica VT1000) to collect sections (300 μm thick) from the anterior to posterior extremes of each brain.
Superresolution laser-scanning confocal microscopy (Zeiss LSM880, Airyscan) was performed using a 63× objective (1.42 NA) to scan individually labeled neurons at high resolution (scan resolution=0.06 um μm/pixel; axial resolution=0.06 um μm/focal step). Target neurons were identified in the brain region of interest by epifluorescence navigation using anatomical location and cell morphology. Microscopy was performed blind to experimental conditions. A minimum of 7 mice were tested in each experimental condition. A minimum of 5 samples per mouse (range=5-6) were measured for each segment.
Blind deconvolution (AutoQuant) was applied to raw three-dimensional digital images which were then analyzed for spine density and morphology by trained analysts. Individual spines were measured manually for (a) head diameter, (b) length, and (c) neck thickness from image Z-stacks using custom-built Afraxis ESP software. Each dendrite was analyzed by 3 (on average) independent analysts. Automated image assignment software distributed images to analysts in a randomized manner and ensured that each analyst performed measurements of near equal numbers of dendrites per group. Analysts were blinded to all experimental conditions (including treatment, brain region, and cell type).
Each identified dendritic spine was measured for (a) spine length, (b) spine head diameter, and (c) neck width. Population distributions of each measure were compiled for each dendritic sample and pooled by group. Raw dendritic spine morphometric values (spine length, head diameter, neck width) were assembled into a scheme used to describe classic spine phenotypes (e.g. mushroom, stubby, etc.). Total spine density was also reported as the sum of the density of all subclasses.
General Observations. […] For adequate study to study comparisons, total spine density data were normalized to % vehicle levels
[formula] Data were then reported as mean+/−SEM of total spine density (% increase from Vehicle).

Where two headings read alike, the source gives them in different places.

Sequence of HDAC2 (Q92769 whole entry): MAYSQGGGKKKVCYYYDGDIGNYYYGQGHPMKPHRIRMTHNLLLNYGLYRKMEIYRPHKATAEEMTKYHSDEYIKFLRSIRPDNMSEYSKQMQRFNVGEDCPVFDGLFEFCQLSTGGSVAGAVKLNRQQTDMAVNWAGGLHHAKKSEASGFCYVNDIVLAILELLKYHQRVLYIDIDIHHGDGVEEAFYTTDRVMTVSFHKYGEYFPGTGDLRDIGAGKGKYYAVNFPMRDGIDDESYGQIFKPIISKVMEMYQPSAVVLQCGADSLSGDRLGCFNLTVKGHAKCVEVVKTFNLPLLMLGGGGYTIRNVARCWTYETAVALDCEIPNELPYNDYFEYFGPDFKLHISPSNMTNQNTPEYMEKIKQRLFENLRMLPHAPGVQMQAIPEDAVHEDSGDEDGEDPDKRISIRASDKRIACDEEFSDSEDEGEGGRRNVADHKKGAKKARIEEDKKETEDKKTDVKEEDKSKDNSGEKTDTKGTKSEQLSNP
T1 sequence (Q13547 whole entry): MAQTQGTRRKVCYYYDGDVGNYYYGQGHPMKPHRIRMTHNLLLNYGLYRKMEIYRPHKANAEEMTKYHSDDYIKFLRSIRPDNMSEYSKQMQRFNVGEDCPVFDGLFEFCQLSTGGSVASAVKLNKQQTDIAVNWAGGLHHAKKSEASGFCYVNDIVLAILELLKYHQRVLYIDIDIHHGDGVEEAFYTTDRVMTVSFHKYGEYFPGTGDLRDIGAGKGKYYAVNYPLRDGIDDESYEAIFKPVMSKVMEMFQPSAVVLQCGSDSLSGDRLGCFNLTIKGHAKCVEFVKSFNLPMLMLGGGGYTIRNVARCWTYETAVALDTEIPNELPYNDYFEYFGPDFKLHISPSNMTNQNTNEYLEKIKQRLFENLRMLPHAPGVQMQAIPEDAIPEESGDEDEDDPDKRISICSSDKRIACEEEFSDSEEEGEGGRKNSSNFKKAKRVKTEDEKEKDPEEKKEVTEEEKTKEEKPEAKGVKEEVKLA

One may read the IC50 as the concentration that inhibits the measured activity by half. On to `Nc1ccc(-c2ccc(F)cc2)cc1NC(=O)N1Cc2nccnc2C1` [Comparator A], for which the IC50 at HDAC1 worked out at 0.027 µM; on HDAC2 it was 0.142 µM.
In the case of `Nc1ccc(-c2ccc(F)cc2)nc1NC(=O)N1Cc2nccnc2C1` [Comparator B], the IC50 at HDAC1 was found to be 0.119 µM; on HDAC2 it was 0.475 µM.
Turning to `Nc1ccc(-c2cccs2)nc1NC(=O)N1Cc2nccnc2C1` [Comparator C], the IC50 came to 0.095 µM at HDAC1 and 0.301 µM at HDAC2.
`Nc1ccc(-c2ccc(F)cc2)nc1NC(=O)N1Cc2cncnc2C1` [Comparator D]: the IC50 at HDAC1 stood at 0.239 µM; on HDAC2 it was 0.627 µM. Besides, the “Projected Brain Cmax @ 10 mpk (*scaled for comparison)” value in data set [1] (mouse, brain, scaled to 10 mpk for comparison) is 158* ng/g.
For the compound `Nc1ccc(-c2cccs2)nc1NC(=O)N1Cc2cncnc2C1` [Comparator E], the IC50 at HDAC1 was 0.142 µM; at HDAC2, 0.511 µM. For the same compound, in data set [1], the “Mouse IV-PO (1/10 mpk): F” value was 49%. For the same compound, the “Mouse PO (10 mpk): Brain Cmax” value in data set [1] (brain) was 100 ng/g. Also, the “Mouse PO (10 mpk): Free brain Cmax” value in data set [1] (free brain) is recorded as 35 ng/g.
In the case of `COCc1cc2c(cn1)CN(C(=O)Nc1nc(-c3ccc(F)cc3F)ccc1N)C2` [Compound 1], the “Thin Spines (% increase over vehicle)” value came to 13.8% in data set [2] (0.1 mg/kg PO daily); 23.2% in data set [2] (0.3 mg/kg PO daily); 45.1% in data set [2] (1 mg/kg PO daily); 25.3% in data set [2] (3 mg/kg PO daily); 19.9% in data set [2] (10 mg/kg PO daily). Moreover, the “Total Spines (% increase over vehicle)” value was found to be 12.2% in data set [2] (0.1 mg/kg PO daily); 21.3% in data set [2] (0.3 mg/kg PO daily); 34.6% in data set [2] (1 mg/kg PO daily); 26.7% in data set [2] (3 mg/kg PO daily); 25.1% in data set [2] (10 mg/kg PO daily). Further, the “dendritic spine density (in words, earlier studies)” value in data set [2] is “increases in dendritic spine density”. Also, the IC50 at HDAC1 was determined as 0.326 µM; at HDAC2, 0.51 µM. Besides, the “Projected Brain Cmax @ 10 mpk” value in data set [1] (mouse, 10 mpk, brain) is reported as 2460 ng/g. Moreover, the “Projected free brain @ 10 mpk” value in data set [1] (mouse, 10 mpk, free brain) was determined as 1.04 µM. In data set [1] (1 mg/kg, mouse, IV, read-out: IV PK Cl (converted)), the clearance was 11.4 mL/min/kg. Further, the half-life in data set [1] (1 mg/kg, mouse, IV, read-out: IV PK T ½ (converted)) was 2.13 h; in data set [1] (10 mpk, mouse, PO, read-out: PK T ½ PO (converted)) it was 1.97 h.
Regarding `Cc1ncc2c(n1)CN(C(=O)Nc1nc(-c3cccs3)ccc1N)C2` [Compound 2], the “Thin Spines (% increase over vehicle)” value in data set [2] (0.1 mg/kg PO daily) stood at 11.3%; in data set [2] (1 mg/kg PO daily) it was 21.2%; in data set [2] (3 mg/kg PO daily), 32.2%; in data set [2] (6 mg/kg PO daily), 35.4%; in data set [2] (20 mg/kg PO daily) it was 37.4%. The “Total Spines (% increase over vehicle)” value in data set [2] (0.1 mg/kg PO daily) was 8.1%; in data set [2] (1 mg/kg PO daily), 21.4%; in data set [2] (3 mg/kg PO daily), 24.7%; in data set [2] (6 mg/kg PO daily), 15%; in data set [2] (20 mg/kg PO daily) it was −0.12%. The “dendritic spine density (in words, earlier studies)” value in data set [2] is on record as “increases in dendritic spine density”. Also, the half-maximal inhibitory concentration (IC50) at HDAC1 was 0.133 µM. Besides, the “Mouse IV-PO (1/10 mpk): F” value in data set [1] worked out at 100%. Also, the “Mouse PO (10 mpk): Brain Cmax” value in data set [1] (brain) is 583 ng/g. The “Mouse PO (10 mpk): Free brain Cmax” value in data set [1] (free brain) is listed as 173 ng/g. Moreover, the “higher brain exposure over the unsubstituted pyrimidine analog” value in data set [1] (mouse, relative to Comparator E) is given as more than 5 fold. Besides, the clearance in data set [1] (1 mg/kg, mouse, IV 1 mpk, read-out: Mouse IV (1 mpk): Cl (converted)) was 69.7 mL/min/kg. In addition, the half-life in data set [1] (1 mg/kg, mouse, IV 1 mpk, read-out: Mouse IV (1 mpk): T1/2 (converted)) was 0.839 h; in data set [1] (10 mpk, mouse, PO, read-out: Mouse PO (1/10 mpk): T1/2 (converted)), 1.05 h.

Values taken from US11286256B2, “Bicyclic inhibitors of histone deacetylase” (Alkermes, Inc., priority 2017, dated 2022).
